Source: patent US7589193B2, “C-aryl glucoside SGLT2 inhibitors and method” (Bristol-Myers Squibb Company, priority 2004, dated 2009)
Where two headings read alike, the source gives them in different places.

Experiments:
[1] = tested on: Chinese hamster ovary (CHO) cells; assay: Cytogenetics study in Chinese hamster ovary cells, in vitro clastogenicity / chromosome aberration (Study C); details: 3 hr with/without S9, 20 hr without S9
Description: (§1) The following protocol was utilized to predict the in vitro clastogenicity activity of compounds of therapeutic interest.
(§2) Clastogenicity was predicted by determining the potential of compounds of interest to induce structural chromosome damage in Chinese hamster ovary (CHO) cells.
(§3) The vehicle control is dimethyl sulfoxide (DMSO). The positive controls were Mitomycin C for the 3-hr and 20-hr exposure without S9 activation and cyclophosphamide for the 3-hr exposure with S9 rat-liver enzymes. Both Mitomycin C and cyclophosphamide were diluted with sterile water.
(§4) Two stock solutions in DMSO of the compound of interest were prepared—one being a high concentration, the other low. Aliquots of the vehicle control, low and high dosing solutions were collected following treatment of the CHO cells and subsequently analyzed to determine the concentration of the compound of interest. […] Once the upper limit of solubility of the compound of interest was determined in DMSO, that DMSO solution is added to culture medium to determine effects on pH or osmmolality. […]
(§5) The DMSO stock solution of the compound of interest was 100× concentration of the highest test-article concentration to be used in the full assay. […] The cytotoxicity dose response observed in the range finding study determined the serial dilution factor for the five lower doses. […]

STZ diabetic rats = assay: Determination of blood glucose effect in streptozotocin-treated diabetic rats (Study A); assay type: in vivo, rat (male Sprague Dawley); details: oral 0.1 mg/kg
Description: I. Protocol for Study A: Determination of Blood Glucose Effect in Streptozotocin-Treated Diabetic Rats
The following analysis was utilized to reasonably predict the impact on plasma glucose for the compounds analyzed in the matrix above.
Male Sprague Dawley rats (Charles River) weighing 250-275 g were made diabetic by a single intraperitoneal injection of streptozotocin (Sigma) at 65 mg/kg, prepared in fresh cold (4° C.) 0.01 M citrate buffer. Four days later, animals were bled in the fed state. Whole blood was collected via the tail tip and analyzed for glucose by the glucose oxidation method with a Glucometer Elite (Bayer). Mean blood glucose levels ranged from 450-550 mg/dl.
On the day of the experiment, the compound was dissolved in the vehicle comprised of 5% m-Pyrol, 20% PEG 400 and 20 mM Sodium Diphosphate. Rats were weighed, randomized into 4 groups with 6 rats in each group, and dosed orally with the vehicle or 0.1 mg/kg of the compound. The total volume for oral gavage was 1 ml/kg body weight. After dosing, the food was removed from the cages and the rats had access to water ad lib during the experiment. Blood samples were obtained from the tail tip at 0, 30, 60, 120, 180, 240 and 300 minutes following drug administration. Blood glucose was analyzed by the glucose oxidation method with a Glucometer Elite (Bayer).
A. Statistical Data Analysis
The calculation of mean blood glucose values and percent changes vs. vehicle at each time point were performed using Microsoft Excel. Statistical analyses (T tests, or ANOVA followed by Fisher's test) comparing drug-treated groups vs. vehicle controls) were performed using Microsoft Excel or the statistical program StatView. A p value of less that 0.05 was considered to be statistically significant.

[2] = Stability in presence of commonly used solid excipients under accelerated aging conditions (Study B); assay type: physicochemical; details: for Stability in a prototypical formulation: drug-excipient blends, accelerated aging conditions, 1 and 3 weeks, HPLC analysis
Text: II. Protocol for Study B: Stability Determination of Oxidatively Labile Therapeutic Agent in Presence of Commonly Used Solid Excipients, Under Accelerated Aging Conditions
The following procedure was utilized to access the chemical stability of the compound 3 in the presence of commonly used excipients and typical antioxidants.
The drug substance was triturated in a mortar pestle with the respective antioxidant, and then mixed in the dry state with other excipients listed in the following table. Sodium metabisulfite and butylated hydroxyl anisole (BHA) were used as antioxidants in this study. BHA was used at two levels, 0.01% w/w and 0.5% w/w, and sodium metabisulfite was used at 0.01% w/w. For samples stored at 40° C./[…] and HIL/uv, oxygen gas was purged into the vials and they were tightly capped. The drug-excipient blends (A-D) were placed under the different accelerated aging conditions listed within the second table for 1 and 3 weeks prior to HPLC analysis.

[3] = tested on: Chinese hamster ovary (CHO) cells
Description: as §1, §2, §3, §4, §5

Structure (SMILES)	In vitro clastogenic activity [1]	% Decrease of plasma glucose in STZ diabetic rats at 5 hr after an oral dose of 0.1 mg/kg vs. vehicle treated controls (STZ diabetic rats)	Stability in a prototypical formulation [2]	Chemical stability in the presence of excipients commonly used in solid dosage forms [2]	In vitro clastogenic activity [3]
CCOc1ccc(Cc2cc([C@@H]3O[C@H](CO)[C@@H](O)[C@H](O)[C@H]3O)ccc2Cl)cc1 [Compound 4]	Yes	60%	Yes	chemically stable	–
CCc1ccc(Cc2cc([C@@H]3O[C@H](CO)[C@@H](O)[C@H](O)[C@H]3O)ccc2Cl)cc1 [Compound 1]	–	62%	Yes	chemically stable	–
CCc1ccc(Cc2cccc([C@@H]3O[C@H](CO)[C@@H](O)[C@H](O)[C@H]3O)c2)cc1 [Compound 5]	–	34%	Yes	chemically stable	Yes
CSc1ccc(Cc2cc([C@@H]3O[C@H](CO)[C@@H](O)[C@H](O)[C@H]3O)ccc2C)cc1 [Compound 3]	–	59%	No	–	–
